Test results from patent US6720346B2, “Thiazole benzamide derivatives and pharmaceutical compositions for inhibiting cell proliferation” (Agouron Pharmaceuticals, Inc., priority 2001, dated 2004).

Experiments:
human CDK4/cyclin D3 = target: T1, human CDK4/cyclin D3 (Homo sapiens, UniProt P11802); assay: Inhibition of CDK4/cyclin D retinoblastoma kinase activity (Ki; % inhibition); type: biochemical; conditions: 0.03 μM compound
T1 construct: made in house; host or cells: insect cells co-infected with baculovirus vectors
Procedure, shortened: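 Radiometric filter-binding read-out: Rb residues 386-928 phosphorylated by 5 nM CDK4/cyclin D3(1-264) from baculovirus-infected insect cells, 25 μM ATP, HEPES pH 7.4, 30 °C. Run 20 min, or 60 min for tight-binding inhibitors. Screening at 30 nM theoretical compound; apparent Ki by competitive-inhibition fitting.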

CDK2/cyclin A = target: T2, CDK2/cyclin A (Homo sapiens, UniProt P24941); assay: Inhibition of CDK2/cyclin A retinoblastoma kinase activity (Ki; % inhibition); type: biochemical; conditions: 0.03 μM compound
T2 construct: made in house; host or cells: CDK2: insect cells (baculovirus); cyclin A: E. coli
Procedure, shortened: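 Apparent Ki values came from fitting concentration-dependent activity data to competitive (or competitive tight-binding) models, and % inhibition from single 30 nM screens of library compounds. Activity was measured as ³²P/³³P incorporation from 25 μM ATP into an Rb substrate by 10 or 19 nM CDK2/delta cyclin A at 30 °C over 60–75 min, pH 7.4.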

HCT-116 cell line = assay: Inhibition of cell growth, MTT tetrazolium salt assay; type: cell-based; conditions: HCT-116 cells; for HCT-116 % Inhibition at 0.1 μM: 0.1 μM compound; for HCT-116 % Inhibition at 0.25 μM: 0.25 μM compound
Procedure, shortened: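 HCT-116 cells in McCoy's 5A were dosed 4 h after plating with compounds in 0.5% DMSO and grown 3–5 days at 37 °C. Then 0.2 mg/mL MTT was added for 4 h and formazan absorbance read at 540 nm. IC50/IC90 came from semi-log plots against DMSO-only controls.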

T1 sequence (P11802 whole entry): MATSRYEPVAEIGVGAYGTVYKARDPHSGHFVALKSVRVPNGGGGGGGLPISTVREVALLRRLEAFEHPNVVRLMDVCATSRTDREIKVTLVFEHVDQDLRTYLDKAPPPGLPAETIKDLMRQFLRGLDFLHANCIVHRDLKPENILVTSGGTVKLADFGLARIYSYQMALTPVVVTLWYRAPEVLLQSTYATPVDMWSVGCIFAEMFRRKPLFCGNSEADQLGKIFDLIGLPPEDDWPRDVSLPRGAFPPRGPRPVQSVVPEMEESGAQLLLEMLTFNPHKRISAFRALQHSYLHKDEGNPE
T1 sequence (P30281 1-264 partner limits assumed): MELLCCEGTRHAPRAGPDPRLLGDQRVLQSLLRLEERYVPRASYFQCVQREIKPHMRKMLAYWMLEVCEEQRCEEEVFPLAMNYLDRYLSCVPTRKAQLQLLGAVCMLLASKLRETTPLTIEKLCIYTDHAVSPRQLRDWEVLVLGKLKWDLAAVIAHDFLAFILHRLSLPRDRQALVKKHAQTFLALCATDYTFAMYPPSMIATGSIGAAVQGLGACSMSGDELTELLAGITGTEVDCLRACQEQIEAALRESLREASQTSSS

Structure (SMILES)	CDK4 % Inhibition at 0.03 μM (human CDK4/cyclin D3)	CDK2 % Inhibition at 0.03 μM (CDK2/cyclin A)	HCT-116 % Inhibition at 0.1 μM (HCT-116 cell line)	HCT-116 % Inhibition at 0.25 μM (HCT-116 cell line)
CC(CCCC(C)(C)O)NC(=O)c1ccc(Nc2nc(N)c(C(=O)c3c(F)cccc3F)s2)cc1 (centres unmarked) [Example G237]	12%	9%	20%	49%
COc1ccc(CCNC(=O)c2ccc(Nc3nc(N)c(C(=O)c4c(F)cccc4F)s3)cc2)cc1 [Example G238]	26%	18%	22%	58%
CCN(CC)CCCC(C)NC(=O)c1ccc(Nc2nc(N)c(C(=O)c3c(F)cccc3F)s2)cc1 (centres unmarked) [Example G239]	27%	15%	21%	50%
COc1ccc(N2CCN(C(=O)c3ccc(Nc4nc(N)c(C(=O)c5c(F)cccc5F)s4)cc3)CC2)cc1 [Example G240]	27%	11%	15%	52%
COc1ccc(CCNC(=O)c2ccc(Nc3nc(N)c(C(=O)c4c(F)cccc4F)s3)cc2)cc1OC [Example G241]	29%	22%	28%	57%
Nc1nc(Nc2ccc(C(=O)NCCNc3ccc([N+](=O)[O-])cn3)cc2)sc1C(=O)c1c(F)cccc1F [Example G242]	49%	43%	34%	69%
Nc1nc(Nc2ccc(C(=O)N(CCCO)Cc3ccccn3)cc2)sc1C(=O)c1c(F)cccc1F [Example G243]	11%	18%	31%	40%
Cc1ccccc1CNC(=O)c1ccc(Nc2nc(N)c(C(=O)c3c(F)cccc3F)s2)cc1 [Example G244]	27%	35%	30%	67%
Cc1ccc([C@H](C)NC(=O)c2ccc(Nc3nc(N)c(C(=O)c4c(F)cccc4F)s3)cc2)cc1 [Example G245]	34%	36%	18%	55%
COc1cccc(CNC(=O)c2ccc(Nc3nc(N)c(C(=O)c4c(F)cccc4F)s3)cc2)c1 [Example G246]	35%	32%	20%	62%
CC(C)CCNC(=O)c1ccc(Nc2nc(N)c(C(=O)c3c(F)cccc3F)s2)cc1 [Example G247]	23%	17%	12%	54%
CCCN(CCC)C(=O)c1ccc(Nc2nc(N)c(C(=O)c3c(F)cccc3F)s2)cc1 [Example G248]	17%	8%	13%	55%
Nc1nc(Nc2ccc(C(=O)NCc3ccco3)cc2)sc1C(=O)c1c(F)cccc1F [Example G249]	40%	39%	37%	80%
Cc1ccc(CNC(=O)c2ccc(Nc3nc(N)c(C(=O)c4c(F)cccc4F)s3)cc2)o1 [Example G250]	39%	39%	31%	72%
CCN(CCc1ccccn1)C(=O)c1ccc(Nc2nc(N)c(C(=O)c3c(F)cccc3F)s2)cc1 [Example G251]	11%	10%	16%	48%
Nc1nc(Nc2ccc(C(=O)NCc3cccc(F)c3)cc2)sc1C(=O)c1c(F)cccc1F [Example G252]	31%	29%	33%	67%
Cc1ccc(CNC(=O)c2ccc(Nc3nc(N)c(C(=O)c4c(F)cccc4F)s3)cc2)cc1 [Example G253]	26%	16%	19%	62%
COc1ccc(CNC(=O)c2ccc(Nc3nc(N)c(C(=O)c4c(F)cccc4F)s3)cc2)c(OC)c1 [Example G254]	20%	28%	35%	75%
CSc1ccc(NC(=O)c2ccc(Nc3nc(N)c(C(=O)c4c(F)cccc4F)s3)cc2)cc1 [Example G255]	0%	−25%	25%	63%
Nc1nc(Nc2ccc(C(=O)NCCCCO)cc2)sc1C(=O)c1c(F)cccc1F [Example G256]	11%	−12%	19%	49%
Nc1nc(Nc2ccc(C(=O)N3CCN(CCO)CC3)cc2)sc1C(=O)c1c(F)cccc1F [Example G257]	2%	−43%	33%	51%
Nc1nc(Nc2ccc(C(=O)NCc3ccc(Cl)cc3)cc2)sc1C(=O)c1c(F)cccc1F [Example G258]	20%	25%	41%	84%
CN(Cc1ccccc1Cl)C(=O)c1ccc(Nc2nc(N)c(C(=O)c3c(F)cccc3F)s2)cc1 [Example G259]	−20%	−30%	21%	46%
CCN(CC)CCCN(C)C(=O)c1ccc(Nc2nc(N)c(C(=O)c3c(F)cccc3F)s2)cc1 [Example G260]	1%	−27%	30%	59%
Nc1nc(Nc2ccc(C(=O)NCc3ccc(C(F)(F)F)cc3)cc2)sc1C(=O)c1c(F)cccc1F [Example G261]	27%	30%	26%	69%
COc1cc(CNC(=O)c2ccc(Nc3nc(N)c(C(=O)c4c(F)cccc4F)s3)cc2)cc(OC)c1 [Example G262]	28%	1%	24%	59%
CC(C)(CO)CNC(=O)c1ccc(Nc2nc(N)c(C(=O)c3c(F)cccc3F)s2)cc1 [Example G263]	24%	2%	26%	54%
Nc1nc(Nc2ccc(C(=O)NCCOCCO)cc2)sc1C(=O)c1c(F)cccc1F [Example G264]	13%	−9%	22%	53%
Nc1nc(Nc2ccc(C(=O)N3CCCCC3CCO)cc2)sc1C(=O)c1c(F)cccc1F (centres unmarked) [Example G265]	1%	−24%	21%	48%
